Here are results for 21 molecules from patent US20240228468A1, “N-(6-((OCTAHYDROCYCLOPENTA[C]PYRROL-5-YI)AMINO)PYRIDAZIN-3-YL)PHENYL)CARBOXAMIDE AND (6- ((OCTAHYDROCYCLOPENTA[C]PYRROL-5-YL)AMINO)PYRIDAZIN-3-YL)BENZAMIDE DERIVATIVES AS MACHR M4 ANTAGONISTS FOR THE TREATMENT OF NEURODEGENERATIVE DISORDERS” (Vanderbilt University, priority 2021, published 2024).

Each structure is given as a SMILES string. Read-outs that look alike come from different tables or passages of the source.

The assay concerns the target T1, Human M4 (Homo sapiens, UniProt P08173).
T1 construct: expressed in transfected cells; host or cells: CHO-K1 (ATCC), co-transfected with chimeric G protein Gqi5
T1 sequence (P08173 1-479): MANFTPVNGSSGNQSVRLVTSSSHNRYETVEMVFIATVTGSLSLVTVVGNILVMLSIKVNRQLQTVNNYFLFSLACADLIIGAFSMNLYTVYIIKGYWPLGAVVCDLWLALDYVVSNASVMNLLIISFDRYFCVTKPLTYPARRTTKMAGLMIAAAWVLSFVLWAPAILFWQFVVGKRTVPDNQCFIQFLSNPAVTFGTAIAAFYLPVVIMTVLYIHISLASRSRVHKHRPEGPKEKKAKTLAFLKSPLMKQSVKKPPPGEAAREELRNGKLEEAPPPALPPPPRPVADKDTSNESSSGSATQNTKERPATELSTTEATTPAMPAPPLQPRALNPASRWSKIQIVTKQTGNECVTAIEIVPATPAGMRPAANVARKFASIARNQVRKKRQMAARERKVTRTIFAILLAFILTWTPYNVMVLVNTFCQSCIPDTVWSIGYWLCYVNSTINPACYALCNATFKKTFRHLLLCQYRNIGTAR
Briefly: mAChR M4 cell-based functional assay (calcium flux, antagonism of EC80 acetylcholine response). Conditions: for IC50: concentration-dependent decrease of the response elicited by an EC80 concentration of acetylcholine. The essentials:
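CHO-K1 cells stably expressing human M4 with chimeric Gqi5, Fluo-4 loaded; calcium flux read on FDSS. Compound (10-point, 1:3 series) added first, then EC20 acetylcholine at 143 s and EC80 at 268 s. IC50 from concentration-dependent decrease of EC80 response, four-parameter logistic fit.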

Where [1] appears, read: M4/Gqi5/CHO-K1 cells, % ACh maximum at 30 μM, read-out: Human M4 Emin (% ACh maximum at 30 μM).
Setting [2] is: CHO-K1, read-out: Human M4 Emin (% ACh maximum at 30 μM).
Where [3] appears, read: M4/Gqi5/CHO-K1 cells, % ACh maximum at 30 μM.

`O=C(Nc1cc(F)c(F)c(-c2ccc(N[C@H]3C[C@@H]4CN(CC5CCOCC5)C[C@@H]4C3)nn2)c1)C1(F)CC1` [Compound A12, N-(3,4-difluoro-5-(6-(((3aR,5s,6aS)-2-((tetrahydro-2H-pyran-4-yl)methyl)octahydrocyclopenta[c]pyrrol-5-yl)amino)pyridazin-3-yl)phenyl)-1-fluorocyclopropane-1-carboxamide]: the remaining activity at 30 µM under setting [1] was 4%. Also, the IC50 (M4/Gqi5/CHO-K1 cells) is 85 nM.
Take `[2H]C([2H])([2H])NC(=O)c1ccc(-c2ccc(N[C@H]3C[C@@H]4CN(C([2H])([2H])C5CCOCC5)C[C@@H]4C3)nn2)cc1` (single isomer, unassigned) [Compound A55]: the remaining activity at 30 µM under setting [2] turned out to be 3%. For the same molecule, the IC50 (M4/Gqi5/CHO-K1 cells) was 5.1 nM.
As for `[2H]C([2H])(C1CCOCC1)N1C[C@H]2C[C@H](Nc3ccc(-c4ccccc4NC(C)=O)nn3)C[C@H]2C1` [Compound B2, N-(2-(6-(((3aR,5s,6aS)-2-((tetrahydro-2H-pyran-4-yl)methyl-d2)octahydrocyclopenta [c]pyrrol-5-yl)amino)pyridazin-3-yl)phenyl)acetamide], under setting [3], the “Human M4 Emin (% ACh maximum at 30 μM)” value came out at 3%. Moreover, the IC50 (M4/Gqi5/CHO-K1 cells) amounted to 58 nM.
As for `N#CCC(=O)Nc1cc(F)c(F)c(-c2ccc(N[C@H]3C[C@@H]4CN(CC5CCOCC5)C[C@@H]4C3)nn2)c1` [Compound A16, 2-cyano-N-(3,4-difluoro-5-(6-(((3aR,5s,6aS)-2-((tetrahydro-2H-pyran-4-yl)methyl)octahydrocyclopenta[c]pyrrol-5-yl)amino)pyridazin-3-yl)phenyl)acetamide], the remaining activity at 30 µM under setting [1] turned out to be 4%. For the same molecule, the IC50 (M4/Gqi5/CHO-K1 cells) was 47 nM.
For the molecule `[2H]C([2H])(C1CCOCC1)N1C[C@H]2C[C@H](Nc3ccc(-c4cc(F)cc(C(=O)NC)c4)nn3)C[C@H]2C1` [Compound A71, 3-Fluoro-N-methyl-5-(6-(((3aR,5s,6aS)-2-((tetrahydro-2H-pyran-4-yl)methyl-d2)octahydrocyclopenta[c]pyrrol-5-yl)amino)pyridazin-3-yl)benzamide], the remaining activity at 30 µM under setting [1] was found to be 4%. Besides, the IC50 (M4/Gqi5/CHO-K1 cells) amounted to 14 nM.
As to `CC(=O)Nc1ccc(-c2ccc(N[C@H]3C[C@@H]4CN(Cc5ccccn5)C[C@@H]4C3)nn2)cc1` [Compound A8, N-(4-(6-(((3aR,5s,6aS)-2-(Pyridin-2-ylmethyl)octahydrocyclopenta[c]pyrrol-5-yl)amino)pyridazin-3-yl)phenyl)acetamide], the remaining activity at 30 µM under setting [2] turned out to be 5%. The IC50 (M4/Gqi5/CHO-K1 cells) turned out to be 43 nM.
As for `[2H]C([2H])([2H])C(=O)Nc1ccc(-c2ccc(N[C@H]3C[C@@H]4CN(C([2H])([2H])C5CCOCC5)C[C@@H]4C3)nn2)cc1` (single isomer, unassigned) [Compound B6], under setting [3], the “Human M4 Emin (% ACh maximum at 30 μM)” value is 3%. Also, the IC50 (M4/Gqi5/CHO-K1 cells) came out at 1.2 nM.
Take `[2H]C([2H])(C1CCOCC1)N1C[C@H]2C[C@H](Nc3ccc(-c4cccc(C(=O)NC(C)C)c4)nn3)C[C@H]2C1` [Compound A72, N-isopropyl-3-(6-(((3aR,5s,6aS)-2-((tetrahydro-2H-pyran-4-yl)methyl-d2)octahydrocyclopenta[c]pyrrol-5-yl)amino)pyridazin-3-yl)benzamide]: under setting [1], the remaining activity at 30 µM worked out at 5%. The IC50 (M4/Gqi5/CHO-K1 cells) is 28 nM.
For `CCN(CC)C(=O)c1ccc(-c2ccc(N[C@H]3C[C@@H]4CN(CC5CCOCC5)C[C@@H]4C3)nn2)cc1` [Compound A24, N,N-diethyl-4-(6-(((3aR,5s,6aS)-2-((tetrahydro-2H-pyran-4-yl)methyl)octahydrocyclopenta[c]pyrrol-5-yl)amino)pyridazin-3-yl)benzamide], in that order: 4% and 37 nM.
For `O=C(c1ccc(-c2ccc(N[C@H]3C[C@@H]4CN(CC5CCOCC5)C[C@@H]4C3)nn2)cc1)N1CCCCC1` [Compound A22, piperidin-1-yl(4-(6-(((3aR,5s,6aS)-2-((tetrahydro-2H-pyran-4-yl)methyl)octahydrocyclopenta[c]pyrrol-5-yl)amino)pyridazin-3-yl)phenyl)methanone], in that order: 4% and 21 nM.
For `O=C(c1ccc(-c2ccc(N[C@H]3C[C@@H]4CN(CC5CCOCC5)C[C@@H]4C3)nn2)cc1)N1CCC(O)C1` (stereo partly drawn) [Compound A25, (3-hydroxypyrrolidin-1-yl)(4-(6-(((3aR,5s,6aS)-2-((tetrahydro-2H-pyran-4-yl)methyl)octahydrocyclopenta[c]pyrrol-5-yl)amino)pyridazin-3-yl)phenyl)methanone], in that order: 4% and 25 nM.
For the molecule `[2H]C([2H])([2H])NC(=O)c1ccc(-c2ccc(N[C@H]3C[C@@H]4CN(CC5CCOCC5)C[C@@H]4C3)nn2)cc1` (single isomer, unassigned) [Compound A54], the remaining activity at 30 µM under setting [1] was found to be 3%. Further, for the setting “M4/Gqi5/CHO-K1 cells”, the IC50 is 9.9 nM.
Take `O=C(c1cc(F)c(F)c(-c2ccc(N[C@H]3C[C@@H]4CN(CC5CCOCC5)C[C@@H]4C3)nn2)c1)N1CC(F)(F)C1` [Compound A20, (3,4-difluoro-5-(6-(((3aR,5s,6aS)-2-((tetrahydro-2H-pyran-4-yl)methyl)octahydrocyclopenta[c]pyrrol-5-yl)amino)pyridazin-3-yl)phenyl)(3,3-difluoroazetidin-1-yl)methanone]: under setting [1], the remaining activity at 30 µM is 4%. Further, the IC50 (M4/Gqi5/CHO-K1 cells) came to 100 nM.
For `CS(=O)(=O)CC(=O)Nc1cccc(-c2ccc(N[C@H]3C[C@@H]4CN(CC5CCOCC5)C[C@@H]4C3)nn2)c1` [Compound A17, 2-(Methylsulfonyl)-N-(3-(6-(((3aR,5s,6aS)-2-((tetrahydro-2H-pyran-4-yl)methyl)octahydrocyclopenta[c]pyrrol-5-yl)amino)pyridazin-3-yl)phenyl)acetamide], under setting [2], the remaining activity at 30 µM amounted to 3%. The IC50 (M4/Gqi5/CHO-K1 cells) worked out at 2.8 nM.
Turning to `CC(=O)Nc1ccc(-c2ccc(N[C@H]3C[C@@H]4CN(Cc5cccc(F)c5)C[C@@H]4C3)nn2)cc1` [Compound A2, N-(4-(6-(((3aR,5s,6aS)-2-(3-fluorobenzyl)octahydrocyclopenta[c]pyrrol-5-yl)amino)pyridazin-3-yl)phenyl)acetamide], the remaining activity at 30 µM under setting [1] came to 4%. Moreover, where the note is “M4/Gqi5/CHO-K1 cells”, the IC50 was 51 nM.
Take `[2H]C([2H])(C1CCOCC1)N1C[C@H]2C[C@H](Nc3ccc(-c4cc(F)c(C(=O)N(C)C)c(F)c4F)nn3)C[C@H]2C1` [Compound A67, 2,3,6-Trifluoro-N,N-dimethyl-4-(6-(((3aR,5s,6aS)-2-((tetrahydro-2H-pyran-4-yl)methyl-d2)octahydrocyclopenta[c]pyrrol-5-yl)amino)pyridazin-3-yl)benzamide]: under setting [2], the remaining activity at 30 µM was 4%. Also, the IC50 (M4/Gqi5/CHO-K1 cells) was determined as 11 nM.
Consider `CC(=O)Nc1ccc(-c2ccc(N[C@H]3C[C@@H]4CN(Cc5ccccc5F)C[C@@H]4C3)nn2)cc1` [Compound A1, N-(4-(6-(((3aR,5s,6aS)-2-(2-fluorobenzyl)octahydrocyclopenta[c]pyrrol-5-yl)amino)pyridazin-3-yl)phenyl)acetamide], for which the remaining activity at 30 µM under setting [1] was found to be 4%. Also, the IC50 (M4/Gqi5/CHO-K1 cells) worked out at 62 nM.
For `[2H]C([2H])(C1CCOCC1)N1C[C@H]2C[C@H](Nc3ccc(-c4ccccc4NC(=O)CC)nn3)C[C@H]2C1` [Compound A50, N-(2-(6-(((3aR,5s,6aS)-2-((tetrahydro-2H-pyran-4-yl)methyl-d2)octahydrocyclopenta[c]pyrrol-5-yl)amino)pyridazin-3-yl)phenyl)propionamide], in that order: 4% and 56 nM.
As to `NC(=O)c1ccc(-c2ccc(N[C@H]3C[C@@H]4CN(CC5CCOCC5)C[C@@H]4C3)nn2)c(F)c1` [Compound A36, 3-fluoro-4-(6-(((3aR,5s,6aS)-2-((tetrahydro-2H-pyran-4-yl)methyl)octahydrocyclopenta[c]pyrrol-5-yl)amino)pyridazin-3-yl)benzamide], the remaining activity at 30 µM under setting [1] was determined as 4%. For the same molecule, the IC50 (M4/Gqi5/CHO-K1 cells) worked out at 5.1 nM.
On to `O=C(Nc1cc(F)c(F)c(-c2ccc(N[C@H]3C[C@@H]4CN(CC5CCOCC5)C[C@@H]4C3)nn2)c1)C1CC(F)(F)C1` [Compound A14, N-(3,4-difluoro-5-(6-(((3aR,5s,6aS)-2-((tetrahydro-2H-pyran-4-yl)methyl)octahydrocyclopenta[c]pyrrol-5-yl)amino)pyridazin-3-yl)phenyl)-3,3-difluorocyclobutane-1-carboxamide], for which the remaining activity at 30 µM under setting [1] stood at 4%. Further, the IC50 (M4/Gqi5/CHO-K1 cells) amounted to 160 nM.
Regarding `[2H]C([2H])([2H])C(=O)Nc1ccccc1-c1ccc(N[C@H]2C[C@@H]3CN(C([2H])([2H])C4CCOCC4)C[C@@H]3C2)nn1` [Compound B4, N-(2-(6-(((3aR,5s,6aS)-2-((tetrahydro-2H-pyran-4-yl)methyl-d2)octahydrocyclopenta [c]pyrrol-5-yl)amino)pyridazin-3-yl)phenyl) acetamide-2,2,2-d3], under setting [3], the “Human M4 Emin (% ACh maximum at 30 μM)” value came out at 4%. Also, the half-inhibitory concentration (IC50) (M4/Gqi5/CHO-K1 cells) was determined as 120 nM.
